From PubChem BioAssay (NCI)
Several values for one entry are separate records, joined by “and”; a condition that tells them apart may be missing. Equal entries are not always repeated.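 Results reflect a 48-hour exposure of cells in 96-well plates to compound at five concentrations. GI50 marks 50% less growth. The concentration for full growth arrest is given as TGI.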 Activity calls are given as the source filed them. Rule as the data show it: active = GI50 below about 0.43 µM; inactive = the rest.

Key:
Assay in all cases: growth of human tumour cells (NCI), 48 h
DMS 114 small cell lung = system: DMS 114 small cell lung
KM20L2 colon = system: KM20L2 colon
M19-MEL melanoma = system: M19-MEL melanoma
SNB-78 CNS = system: SNB-78 CNS
LXFL 529 NSCLC = system: LXFL 529 NSCLC
DMS 273 small cell lung = system: DMS 273 small cell lung
DLD-1 colon = system: DLD-1 colon
HOP-18 NSCLC = system: HOP-18 NSCLC
RXF-631 renal = system: RXF-631 renal

| SMILES | TGI (DMS 114 small cell lung) [µM] | TGI (KM20L2 colon) [µM] | TGI (M19-MEL melanoma) | TGI (SNB-78 CNS) | TGI (LXFL 529 NSCLC) [µM] | TGI (DMS 273 small cell lung) [µM] | TGI (DLD-1 colon) [µM] | TGI (HOP-18 NSCLC) [µM] | TGI (RXF-631 renal) [µM] | GI50 (DMS 114 small cell lung) | outcome (KM20L2 colon) | GI50 (M19-MEL melanoma) | GI50 (SNB-78 CNS) | GI50 (DMS 273 small cell lung) | GI50 (DLD-1 colon) | outcome (HOP-18 NSCLC) | GI50 (KM20L2 colon) [µM] | GI50 (LXFL 529 NSCLC) [µM] | GI50 (HOP-18 NSCLC) [µM] |
| --- | --- | --- | --- | --- | --- | --- | --- | --- | --- | --- | --- | --- | --- | --- | --- | --- | --- | --- | --- |
| O=C(/C=C/c1ccc([N+](=O)[O-])o1)N1CCN(Cc2ccccc2)CC1 | 27.4 | 24.3 | 21.8 µM | 54.5 µM | 20.2 | 24 | 19.7 | 37.1 |  |  |  |  |  |  |  |  |  |  |  |
| COc1ccc(-c2onc(-c3ccc([N+](=O)[O-])cc3)c2C2=NCCN2)cc1 |  | > 100 | > 100 µM | > 100 µM | > 100 |  | > 100 | > 100 |  |  |  |  |  |  |  |  |  |  |  |
| CCNC(=O)CCN(C(=O)O)S(=O)(=O)c1ccc(NC(=O)c2ccccc2)cc1 | > 100 | > 100 | > 100 µM | > 100 µM | > 100 | 41.3 | > 100 | > 100 |  |  |  |  |  |  |  |  |  |  |  |
| O=[N+]([O-])c1cccc(C2N3CCCCC3[C@@H]3c4[nH]c5ccccc5c4CCN23)c1 (some centres not stated) | 22.2 | 22.9 | 25 µM | 26.1 µM | 60.8 | 26 | 29.2 | > 100 |  |  |  |  |  |  |  |  |  |  |  |
| COC(=O)c1s/c(=N\C(=S)N(C)C)n(-c2ccccc2)c1C(=O)OC | > 100 | > 100 | > 100 µM | > 100 µM |  | > 100 |  |  |  |  |  |  |  |  |  |  |  |  |  |
| COc1cc(/C=C(\C#N)C(=O)c2ccccc2)ccc1OCc1ccccc1 | > 100 | > 100 | > 100 µM | > 100 µM |  |  |  |  |  |  |  |  |  |  |  |  |  |  |  |
| CCCCc1c2c(nc3c1CCC/C3=C\c1ccccc1)C(=O)CCC2 | 41.7 | 41.7 | 34.4 µM | 52.5 µM | > 100 | 65.6 |  | 79 |  |  |  |  |  |  |  |  |  |  |  |
| Cc1[nH]c2ccccc2c1C1Cc2ccccc2N1C(=O)/C=C\C(=O)O (configuration not stated) | 64.4 | > 100 | > 100 µM | > 100 µM | 41.1 | > 100 | > 100 |  | > 100 |  |  |  |  |  |  |  |  |  |  |
| CCCCCCCCC[C@@H]1CC(=O)OCC2OC(O[C@H](CCCCCCCCC)CC(=O)OCC3OC(O[C@H](CCCCCCCCC)CC(=O)OCC4OC(O1)C(O)C(O)C4O)C(O)C(O)C3O)C(O)C(O)C2O (some centres not stated) | 24 | 19.7 | 16.5 µM | 34.6 µM | 18 | 21.6 | 28.2 | 0.0797 |  |  |  |  |  |  |  |  |  |  |  |
| NNC(=O)/C(=C/c1ccc(Cl)c(Cl)c1)NC(=O)c1ccccc1 | > 100 | > 100 | > 100 µM | > 100 µM | > 100 |  | > 100 |  | > 100 |  |  |  |  |  |  |  |  |  |  |
| COc1ccc([N+]2=NC(c3ccc([N+](=O)[O-])cc3)=NN(c3ccccc3)C2)cc1 | > 100 | > 100 |  | > 100 µM | > 100 | > 100 | > 100 |  |  |  |  |  |  |  |  |  |  |  |  |
| O=C1OC(CC(=O)c2ccc(Cl)c(Cl)c2)C(Cl)=C1Cl (configuration not stated) | > 100 | > 100 | > 100 µM |  | > 100 | > 100 | > 100 | > 100 | > 100 |  |  |  |  |  |  |  |  |  |  |
| CCOC(=O)Nc1nc2ccc(Cn3cccc3)cc2[nH]1 | > 100 | 12.9 | > 100 µM | > 100 µM | > 100 | > 100 | > 100 | > 100 | > 100 |  |  |  |  |  |  |  |  |  |  |
| CC1=C(C(=O)Nc2ccccc2C)C(c2ccc(Cl)c(Cl)c2)C(C(=O)Nc2ccccc2C)=C(C)N1 | 41 | 34.8 | 45.2 µM | > 100 µM | 43.4 | 41.1 | > 100 | 69.4 | 73.2 |  |  |  |  |  |  |  |  |  |  |
| CCN(CC)CCCC(C)Nc1c2ccc(Cl)cc2nc2ccc(OC)cc12 (configuration not stated) | 3.1 | 3 | 3.14 µM | 11.5 µM | 2.95 | 2.04 | 4.39 |  | 3.55 |  |  |  |  |  |  |  |  |  |  |
| Cc1c[nH]c2c(O)cc3c(c12)[C@H](CCl)CN3C(=O)c1cc2cc(NC(=O)Nc3ccc4[nH]c(C(=O)N5C[C@@H](CCl)c6c5cc(O)c5[nH]cc(C)c65)cc4c3)ccc2[nH]1 |  |  | 3.44 ng/mL | 1.59 µM and 0.00887 µg/mL and 6.72 µg/mL |  |  |  |  |  | 0.000887 ng/mL and 0.888 ng/mL | inactive | 1.14 ng/mL | 0.000887 ng/mL and 2.73 ng/mL | 0.000887 ng/mL and 0.888 ng/mL | 0.000887 ng/mL and 1.4 ng/mL | inactive |  |  |  |

| SMILES | TGI (DMS 114 small cell lung) [µM] | TGI (KM20L2 colon) [µM] | TGI (M19-MEL melanoma) | TGI (SNB-78 CNS) | TGI (LXFL 529 NSCLC) [µM] | TGI (DMS 273 small cell lung) [µM] | TGI (DLD-1 colon) [µM] | TGI (HOP-18 NSCLC) [µM] | TGI (RXF-631 renal) [µM] | GI50 (DMS 114 small cell lung) | outcome (KM20L2 colon) | GI50 (M19-MEL melanoma) | GI50 (SNB-78 CNS) | GI50 (DMS 273 small cell lung) | GI50 (DLD-1 colon) | outcome (HOP-18 NSCLC) | GI50 (KM20L2 colon) [µM] | GI50 (LXFL 529 NSCLC) [µM] | GI50 (HOP-18 NSCLC) [µM] |
| --- | --- | --- | --- | --- | --- | --- | --- | --- | --- | --- | --- | --- | --- | --- | --- | --- | --- | --- | --- |
| O=C1c2ccccc2-c2cccc3ccc(Cc4ccc5ccccc5c4)c1c23 |  | > 100 | > 100 µM | > 100 µM |  | > 100 | > 100 |  | > 100 |  |  |  |  |  |  |  |  |  |  |
| O=S(=O)(N/N=C/c1ccc(/C=N/NS(=O)(=O)c2ccccc2)cc1)c1ccccc1 | > 100 | > 100 | > 100 µM | > 100 µM |  | > 100 |  | > 100 | > 100 |  |  |  |  |  |  |  |  |  |  |
| CC(=O)Nc1ccc(C(=O)NN2C(=O)C(Cl)C2c2ccc(Cl)cc2)cc1 (configuration not stated) |  |  | > 100 µM |  | > 100 |  | > 100 | > 100 |  |  |  |  |  |  |  |  |  |  |  |
| COC(=O)C1C(C(=O)OC)C2(OC)c3ccccc3-c3ccccc3C12 (configuration not stated) | 87.9 | 87.9 | > 100 µM |  | > 100 | 43 | > 100 | > 100 | > 100 |  |  |  |  |  |  |  |  |  |  |
| CCOC(=O)NC(=O)c1cn(CC(=O)NCC(=O)NCC(=O)NCCCN2CCN(CCCNC(=O)CNC(=O)CNC(=O)Cn3cc(C(=O)NC(=O)OCC)c(=O)[nH]c3=O)CC2)c(=O)[nH]c1=O | > 100 | > 100 | > 100 µM | > 100 µM | > 100 | > 100 | > 100 | > 100 | > 100 |  |  |  |  |  |  |  |  |  |  |
| COc1c2nc(CCl)[nH]c(=O)c2c(OC)c2nc(CCl)[nH]c(=O)c12 | > 100 | > 100 | > 100 µM | > 100 µM | > 100 | > 100 | > 100 | > 100 |  |  |  |  |  |  |  |  |  |  |  |
| CCN(CC)CC(O)CNc1ccc(NCC2CO2)c2c1C(=O)c1ccccc1C2=O (configuration not stated) | 4.43 | 8.63 | 0.577 µM | 2.6 µM | 0.247 | 1.68 | 10.7 | 37 | 2.24 |  |  |  |  |  |  |  |  |  |  |
| CC(C)CS(=O)(=O)/C(=C(\c1ccc(Br)cc1)S(=O)(=O)CC(C)C)c1ccc(Br)cc1 |  | > 100 | > 100 µM | > 100 µM | > 100 | > 100 | > 100 | > 100 | > 100 |  |  |  |  |  |  |  |  |  |  |
| Cc1c(NC(=O)C(C)(C)Br)c(=O)oc2c(C)c3occc(=O)c3cc12 | > 100 | > 100 |  |  | > 100 | > 100 | > 100 |  | > 100 |  |  |  |  |  |  |  |  |  |  |
| Cc1cc(Cl)ccc1NC(=O)CCCC(=O)C1CCCC1=O (configuration not stated) | > 100 | > 100 | > 100 µM | > 100 µM | > 100 | > 100 | > 100 | > 100 |  |  |  |  |  |  |  |  |  |  |  |
| CC(=O)c1cccc(N2COC(C)(C)c3nc4ccccc4n3C2)c1 | > 100 | > 100 | > 100 µM | > 100 µM | > 100 | > 100 | > 100 | > 100 |  |  |  |  |  |  |  |  |  |  |  |
| CC/C(C)=C1\CCC(CN2CCOCC2)C1=O (configuration not stated) | 18.6 | 36.7 | 30 µM | 50.5 µM | 23.7 | 32.4 | 27 | 34.1 |  |  |  |  |  |  |  |  |  |  |  |
| CC(=O)OCC1OC(N2C(=O)C(=O)c3cc(C)ccc32)C(OC(C)=O)C(OC(C)=O)C1OC(C)=O (configuration not stated) | > 100 | > 100 | > 100 µM | > 100 µM | > 100 | > 100 | > 100 | > 100 |  |  |  |  |  |  |  |  |  |  |  |
| O=[N+]([O-])c1cccc(/C=N\NS(=O)(=O)c2ccc(Cl)cc2)c1O |  | > 100 | > 100 µM | > 100 µM | > 100 | > 100 | > 100 | > 100 | > 100 |  |  |  |  |  |  |  |  |  |  |
| COc1ccc(NC(=O)C(=O)C(C(=O)c2ccccc2)C2OC(=O)c3ccccc32)c([N+](=O)[O-])c1 (configuration not stated) | > 100 | > 100 | > 100 µM | > 100 µM | > 100 | > 100 | > 100 | > 100 |  |  |  |  |  |  |  |  |  |  |  |
| CCOC(=O)C(N)C[S][Sn]([CH3])([CH3])[Cl] (configuration not stated) | > 100 | > 100 | > 100 µM | > 100 µM | > 100 | > 100 | > 100 | > 100 |  | 97.4 µM |  | > 89.1 µM | > 94.3 µM | > 100 µM | > 100 µM |  | > 100 | 28.7 | > 100 |
